Laboratory results reported in US9834558B2, “Substituted bridged urea analogs as sirtuin modulators” (GLAXOSMITHKLINE LLC, priority 2013, dated 2017).

Target: T1, SIRT1 (Homo sapiens, UniProt Q96EB6)
T1 sequence (Q96EB6 1-747): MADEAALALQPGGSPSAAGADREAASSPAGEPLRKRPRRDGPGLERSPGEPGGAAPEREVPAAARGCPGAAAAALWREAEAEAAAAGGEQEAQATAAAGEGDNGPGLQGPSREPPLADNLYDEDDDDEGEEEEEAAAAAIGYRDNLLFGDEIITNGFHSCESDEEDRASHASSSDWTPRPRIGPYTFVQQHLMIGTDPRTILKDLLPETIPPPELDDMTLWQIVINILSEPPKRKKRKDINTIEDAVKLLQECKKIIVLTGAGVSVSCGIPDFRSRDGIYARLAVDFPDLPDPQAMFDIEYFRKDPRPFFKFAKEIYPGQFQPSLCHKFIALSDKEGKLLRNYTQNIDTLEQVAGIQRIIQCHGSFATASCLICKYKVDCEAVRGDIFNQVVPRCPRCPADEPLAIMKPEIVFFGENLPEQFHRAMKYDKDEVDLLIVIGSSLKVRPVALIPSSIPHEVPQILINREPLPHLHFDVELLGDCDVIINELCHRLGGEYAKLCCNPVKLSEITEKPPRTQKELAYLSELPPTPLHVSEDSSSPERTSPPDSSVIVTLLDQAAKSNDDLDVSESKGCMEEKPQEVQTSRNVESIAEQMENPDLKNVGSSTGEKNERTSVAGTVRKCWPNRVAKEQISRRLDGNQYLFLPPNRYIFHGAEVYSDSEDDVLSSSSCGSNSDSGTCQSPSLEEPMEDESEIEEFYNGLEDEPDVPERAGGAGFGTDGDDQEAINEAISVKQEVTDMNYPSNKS
Assay: Trp mass spectrometry assay of SIRT1 activation
Assay type: biochemical
Details: for TRP Activity (EC1.5): EC1.5 = concentration that results in 150% activation of SIRT1; for Emax: read-out: TRP MAX RESP (percent maximum fold activation)
In short: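 Activation read-out: mass-spec measurement of O-acetyl-ADP-ribose or deacetylated Trp peptide versus compound-free controls, giving EC1.5 and Percent Maximum Activation. Reactions ran 25 min at 25 °C, pH 7.5, with 120 μM βNAD+, 0.5 μM acetylated p53-derived peptide and 10 nM His-tagged SIRT1.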

[1] = Trp peptide assay, maximum activity relative to control (100%)
[2] = concentration giving 150% activation of SIRT1, Trp peptide substrate
[3] = Trp mass spectrometry assay, EC1.5 = concentration of test compound that results in 150% activation of SIRT1

Row | Structure (SMILES) | TRP Activity (EC1.5) (Trp peptide assay) | Tryp AVG EC1.5 (μM) [3] | also measured
1 | Cc1cc(-c2ccc3c(n2)N(C(=O)Nc2cnccn2)[C@H]2CCN3C2)cnc1C [(9S)-5-(5,6-dimethylpyridin-3-yl)-N-(pyrazin-2-yl)-1,6,8-triazatricyclo[7.2.1.0 {2,7}]dodeca-2(7),3,5-triene-8-carboxamide] | A (A (EC1.5<1 μM)) | – | Emax [1]: > 150%
2 | COc1cc(NC(=O)N2c3nc(-c4ccnc(N5CCC(F)(F)C5)c4)ccc3N3CC[C@H]2C3)ncn1 [Example 390] | – | – | Tryp AVG EC1.5 (μM) (Trp mass spectrometry assay, concentration of test compound giving 150% activation of SIRT1): B (B (EC1.5 1-25 μM))
3 | O=C(Nc1ccc(F)cn1)N1c2nc(N3CCC[C@H](C(F)(F)F)C3)ccc2N2CCC[C@H]1C2 [drawing 1208, (9S)-N-(5-fluoropyridin-2-yl)-5-[(3S)-3-(trifluoromethyl)piperidin-1-yl]-1,6,8-triazatricyclo[7.3.1.0 {2,7}]trideca-2(7),3,5-triene-8-carboxamide] | B (B (EC1.5 1-25 μM)) | – | TRP MAX RESP (percent maximum fold activation) [1]: A (A (Fold activation ≧150%))
4 | C#CCOc1cccc(NC(=O)N2c3nc(-c4cccc(C5(C(F)(F)F)N=N5)c4)ccc3N3CC[C@H]2C3)c1 [Example 797] | – | – | Tryp AVG EC1.5 (μM) [2]: A (A (EC1.5<1 μM))
5 | Cc1cc(-c2ccc3c(n2)N(C(=O)Nc2ncn(C)n2)[C@H]2CCN3C2)ccn1 [(9S)-N-(1-methyl-1H-1,2,4-triazol-3-yl)-5-(2-methylpyridin-4-yl)-1,6,8-triazatricyclo[7.2.1.0 {2,7}]dodeca-2(7),3,5-triene-8-carboxamide] | C (C (EC1.5>25 μM)) | – | Emax [1]: > 150%
6 | O=C(Nc1ccncc1F)N1c2nc(-c3cccc(Cl)c3)ccc2N2CCC[C@H]1C2 [Example 421] | – | A (A (EC1.5<1 μM)) | –
7 | O=C(Nc1nnc(-c2cccnc2)s1)N1c2nc(-c3cccc(C(F)(F)F)c3)ccc2N2CC[C@H]1C2 [Example 651] | – | – | Tryp AVG EC1.5 (μM) [2]: A (A (EC1.5<1 μM))
8 | O=C(Nc1cncc(F)c1)N1c2nc(-c3cncc(Cl)c3)ccc2N2CCC1CC2 [Example 545] | – | B (B (EC1.5 1-25 μM)) | –
9 | C[C@@H]1CN(c2ccc3c(n2)N(C(=O)Nc2cnccn2)[C@H]2CCN3C2)CCN1 [(9S)-5-[(3R)-3-methylpiperazin-1-yl]-N-(pyrazin-2-yl)-1,6,8-triazatricyclo[7.2.1.0 {2,7}]dodeca-2,4,6-triene-8-carboxamide] | C (C (EC1.5>25 μM)) | – | Emax [1]: < 150%
10 | Cc1ccc(-c2ccc(NC(=O)N3c4nc(-c5cccc(C(F)(F)F)c5)ccc4N4CC[C@H]3C4)cc2)o1 [Example 582] | – | B (B (EC1.5 1-25 μM)) | –
11 | COc1nccnc1NC(=O)N1c2nc(-c3ccnc(C)c3)ccc2N2CC[C@H]1C2 [Example 501] | – | B (B (EC1.5 1-25 μM)) | –
12 | COC(=O)N1CCCN(c2ccc3c(n2)N(C(=O)Nc2ccncn2)[C@H]2CCCN3C2)CC1 [Example 446] | – | B (B (EC1.5 1-25 μM)) | –
13 | N#Cc1cncc(-c2ccc3c(n2)N(C(=O)Nc2ccccn2)[C@H]2CCCN3C2)c1 [Example 557] | – | A (A (EC1.5<1 μM)) | –
14 | O=C(CCCCCNC(=O)c1ccc2c(c1)C(=O)OC21c2ccc(O)cc2Oc2cc(O)ccc21)NCc1ncc(-c2cccc(NC(=O)N3c4nc(-c5cccc(C(F)(F)F)c5)ccc4N4CC[C@H]3C4)c2)o1 [Example 708] | – | – | Tryp AVG EC1.5 (μM) [2]: A (A (EC1.5<1 μM))
15 | CC(=O)c1cccc(NC(=O)N2c3nc(-c4cccc(C(F)(F)F)c4)ccc3N3CC[C@H]2C3)c1 [Example 671] | – | – | Tryp AVG EC1.5 (μM) [2]: A (A (EC1.5<1 μM))
16 | O=C(NC1CCOC1)c1ccc2c(n1)N(C(=O)Nc1ccccn1)[C@H]1CCN2C1 (stereo partly drawn) [(9S)-5-N-(oxolan-3-yl)-8-N-(pyridin-2-yl)-1,6,8-triazatricyclo[7.2.1.0 {2,7}]dodeca-2(7),3,5-triene-5,8-dicarboxamide] | B (B (EC1.5 1-25 μM)) | – | Emax [1]: > 150%
